A word on the IC50: it is the concentration that gives 50% inhibition.

Molecules are shown by their SMILES.

Experiment [1] relates to MOLM-14 D835Y (endogenous FLT3 ITD and transfected FLT3 D835Y). Description: MOLM-14 D835Y cell proliferation assay (CellTiter-Glo). It counts as cell-based. To be noted: Homo sapiens, MOLM-14, 72 h; 3 d growth, GMean. The method in brief:
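Three-day proliferation at 37 °C/5% CO2 of FLT3-ITD MOLM-14 lines with D835Y or F691L mutation, seeded 1×10^4 per well. Compounds at eight points, top 1 μM final, 0.2% DMSO. ATP luminescence (CellTiter-Glo) gives IC50.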
On the technique in general: Cellular ATP, detected with luciferase, serves as a proxy for viable cell number.

The target in experiment [2] is T1, FLT3-ITD (Homo sapiens, UniProt P36888).
T1 sequence (P36888 1-993): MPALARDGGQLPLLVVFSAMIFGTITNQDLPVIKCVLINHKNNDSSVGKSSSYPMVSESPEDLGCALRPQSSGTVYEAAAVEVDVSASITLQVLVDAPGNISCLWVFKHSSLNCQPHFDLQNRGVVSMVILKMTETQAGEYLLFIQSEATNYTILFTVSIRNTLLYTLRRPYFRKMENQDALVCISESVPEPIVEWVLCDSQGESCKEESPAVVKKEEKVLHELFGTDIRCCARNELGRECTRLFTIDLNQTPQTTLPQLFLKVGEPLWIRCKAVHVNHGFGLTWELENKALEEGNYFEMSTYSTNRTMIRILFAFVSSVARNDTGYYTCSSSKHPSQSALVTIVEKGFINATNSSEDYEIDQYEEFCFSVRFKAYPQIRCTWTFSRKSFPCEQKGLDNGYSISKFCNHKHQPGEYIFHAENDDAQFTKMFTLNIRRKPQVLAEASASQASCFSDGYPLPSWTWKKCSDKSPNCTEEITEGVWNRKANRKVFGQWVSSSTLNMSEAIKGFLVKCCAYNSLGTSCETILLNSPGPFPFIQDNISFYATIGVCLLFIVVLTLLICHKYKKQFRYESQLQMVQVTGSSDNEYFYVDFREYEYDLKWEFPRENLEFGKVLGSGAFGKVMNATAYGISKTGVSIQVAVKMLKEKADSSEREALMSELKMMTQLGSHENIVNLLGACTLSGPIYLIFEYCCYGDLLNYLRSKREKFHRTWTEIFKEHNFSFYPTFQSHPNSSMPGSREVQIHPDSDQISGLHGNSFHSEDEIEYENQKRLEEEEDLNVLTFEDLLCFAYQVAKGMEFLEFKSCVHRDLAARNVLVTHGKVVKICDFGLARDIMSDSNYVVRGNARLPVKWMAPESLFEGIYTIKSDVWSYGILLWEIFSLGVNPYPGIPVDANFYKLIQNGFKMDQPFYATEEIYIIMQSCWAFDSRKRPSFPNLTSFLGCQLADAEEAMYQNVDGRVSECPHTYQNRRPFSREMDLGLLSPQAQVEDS
Nature of the experiment: FLT3-ITD recombinant enzyme kinase assay (AlphaScreen). Particulars: 8 pt; read-out: FLT3_ITD 8 pt: IC50. Type of experiment: biochemical. The method in brief: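 Kinase activity of recombinant FLT3-ITD, FLT3-D835Y and c-KIT was followed via phosphotyrosine formation on a 30 nM biotin-peptide substrate, captured on streptavidin donor and anti-phosphotyrosine acceptor AlphaScreen beads. ATP was set at 10 μM for FLT3 and 100 μM for c-KIT.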
In general terms: In Alpha technology, singlet oxygen from a donor bead excites a nearby acceptor bead.

Regarding `COc1ncc(NC(=O)Cc2ccc(-c3cnc(Nc4cn(C)cn4)nc3)cc2)cc1C(F)(F)F` [Compound P-0149, N-[6-methoxy-5-(trifluoromethyl)-3-pyridyl]-2-[4-[2-[(1-methylimidazol-4-yl)amino]pyrimidin-5-yl]phenyl]acetamide], the half-inhibitory concentration (IC50) in experiment [1] and in experiment [2] was 0.0001 to 10 µM in each case.

With `Cn1cc(Nc2ncc(-c3ccc(CC(=O)Nc4ccnc(S(C)(=O)=O)c4)cc3)cn2)cn1` [Compound P-0154, 2-[4-[2-[(1-methylpyrazol-4-yl)amino]pyrimidin-5-yl]phenyl]-N-(2-methylsulfonyl-4-pyridyl)acetamide], the IC50 in experiment [1] and in experiment [2] was 0.0001 to 10 µM each time.

As to `COc1ncc(NC(=O)Cc2cc(F)c(-c3cnc4[nH]nc(C)c4c3)cc2F)cc1C(F)(F)F` [Compound P-0176, 2-[2,5-difluoro-4-(3-methyl-1H-pyrazolo[3,4-b]pyridin-5-yl)phenyl]-N-[6-methoxy-5-(trifluoromethyl)-3-pyridyl]acetamide], the IC50 in experiment [1] and in experiment [2] was 0.0001 to 10 µM each time.

Turning to `Cn1cc(Nc2ncc(-c3ccc(CC(=O)Nc4cc(C(F)(F)F)ncn4)cc3)cn2)cn1` [Compound P-0135, 2-[4-[2-[(1-methylpyrazol-4-yl)amino]pyrimidin-5-yl]phenyl]-N-[6-(trifluoromethyl)pyrimidin-4-yl]acetamide], the half-maximal inhibitory concentration (IC50) in experiment [1] and in experiment [2] was 0.0001 to 10 µM in each case.

As for `N#Cc1cc(-c2cc3cc(-c4ccc(CC(=O)Nc5cc(C(F)(F)F)ccn5)cc4F)cnc3[nH]2)ccn1` [Compound P-0194, 2-[4-[2-(2-cyano-4-pyridyl)-1H-pyrrolo[2,3-b]pyridin-5-yl]-3-fluoro-phenyl]-N-[4-(trifluoromethyl)-2-pyridyl]acetamide], the IC50 in experiment [1] and in experiment [2] was 0.0001 to 10 µM each time.

With `Cn1cc(Nc2ncc(-c3ccc(CC(=O)Nc4cnc(F)c(C(C)(F)F)c4)cc3)cn2)cn1` [Compound P-0104, N-[5-(1,1-difluoroethyl)-6-fluoro-3-pyridyl]-2-[4-[2-[(1-methylpyrazol-4-yl)amino]pyrimidin-5-yl]phenyl]acetamide], the half-inhibitory concentration (IC50) in experiment [1] and in experiment [2] was 0.0001 to 10 µM throughout.

With `Cc1ncc(NC(=O)Cc2ccc(-c3cnc(Nc4cnn(C)c4)nc3)cc2F)cc1C(F)(F)F` [Compound P-0091, 2-[2-fluoro-4-[2-[(1-methylpyrazol-4-yl)amino]pyrimidin-5-yl]phenyl]-N-[6-methyl-5-(trifluoromethyl)-3-pyridyl]acetamide], the IC50 in experiment [1] and in experiment [2] was 0.0001 to 10 µM each time.

In the case of `Cc1ncc(NC(=O)Cc2ccc(-c3cnc(Nc4cn(C)cn4)nc3)cc2)cc1C(F)(F)F` [Compound P-0150, 2-[4-[2-[(1-methylimidazol-4-yl)amino]pyrimidin-5-yl]phenyl]-N-[6-methyl-5-(trifluoromethyl)-3-pyridyl]acetamide], the IC50 in experiment [1] and in experiment [2] was 0.0001 to 10 µM in each case.

Source of the values: patent US10160747B2, “Compounds and methods for kinase modulation, and indications therefor” (Plexxikon Inc., priority 2016, dated 2018).
